According to patent US20240376085A1 (Janssen Pharmaceutica NV, priority 2021, published 2024):

Assays:
[1] = tested on: IL-17A-induced G-CSF production in human normal keratinocyte (NHK); assay: NHK assay: IL-17A-induced G-CSF production in normal human keratinocytes; type: cell-based; conditions: 24 h, IL-17A 5 ng/mL, average if tested more than once
How it was run: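 Compound titrations are first mixed with recombinant human IL-17A for 1 h at room temperature. The mixture goes onto adult normal human keratinocytes (final IL-17A 5 ng/mL, 5% FBS, 0.2% DMSO) for 24 h at 37 °C. Secreted G-CSF is then measured by HTRF and IC50 fitted.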

IL-17A : IL-17RA binding = target: T1, IL-17A : IL-17RA binding (Homo sapiens, UniProt Q16552, K93Q); assay: IL-17A(FLAG-tagged):IL-17RA(His-tagged) binding disruption Eu-HTRF assay, Protocol 1; conditions: FLAG-IL-17A 2.5 nM at 2x final concentration; average if tested more than once
T1 construct: Name: IL-17A-Flag
T1 sequence (Q16552 with tags, fused parts or gaps K93Q): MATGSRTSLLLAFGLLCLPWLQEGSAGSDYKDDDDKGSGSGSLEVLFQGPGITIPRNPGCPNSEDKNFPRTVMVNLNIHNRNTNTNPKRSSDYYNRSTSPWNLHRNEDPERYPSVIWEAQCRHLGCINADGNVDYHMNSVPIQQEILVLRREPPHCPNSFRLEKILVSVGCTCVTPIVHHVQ
How it was run: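 IC50 came from a one-site competition fit of the acceptor/donor (665/620 nm) HTRF ratio. His-tagged IL-17RA, Eu-anti-FLAG and D2-anti-His were added after a 1 h rt compound preincubation with FLAG-tagged IL-17A dimer in PBS/0.01% Triton X-100, followed by 2 h at rt before reading.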

| Structure (SMILES) | IC50 ([1]; Homo sapiens, Keratinocyte) [µM] | IC50 (IL-17A : IL-17RA binding) [µM] | IC50 [1] [µM] |
| --- | --- | --- | --- |
| C[C@@H](NC(=O)CCC(F)(F)F)c1ccc2[nH]c(C(CC(C)(C)C(F)(F)F)NC(=O)c3cnn(CCC(F)(F)F)n3)nc2c1 (single isomer, unassigned) [Example 219, N—((S*)-4,4,4-Trifluoro-3,3-dimethyl-1-(5-((R)-1-(4,4,4-trifluorobutanamido)ethyl)-1H-benzo[d]imidazol-2-yl)butyl)-2-(3,3,3-trifluoropropyl)-2H-1,2,3-triazole-4-carboxamide] | > 0.1 | > 0.1 | – |
| CC(NC(=O)CCC(F)(F)F)c1ccc2nc([C@H](CC(C)(C)C(F)(F)F)NC(=O)c3ccnn3CCC(F)(F)F)[nH]c2c1 (single isomer, unassigned) [Example 229, N—((S)-4,4,4-Trifluoro-3,3-dimethyl-1-(6-((S*)-1-(4,4,4-trifluorobutanamido)ethyl)-1H-benzo[d]imidazol-2-yl)butyl)-1-(3,3,3-trifluoropropyl)-1H-pyrazole-5-carboxamide] | > 0.1 | > 0.1 | – |
| CC(NC(=O)CCC(F)(F)F)c1ccc2nc([C@H](CC(C)(C)C(F)(F)F)NC(=O)c3ccnn3CCC(F)(F)F)[nH]c2c1 (single isomer, unassigned) [Example 230, N—((S)-4,4,4-Trifluoro-3,3-dimethyl-1-(6-((R*)-1-(4,4,4-trifluorobutanamido)ethyl)-1H-benzo[d]imidazol-2-yl)butyl)-1-(3,3,3-trifluoropropyl)-1H-pyrazole-5-carboxamide] | – | > 0.1 | 0.05 to 0.1 |
| CC(NC(=O)CCC(F)(F)F)c1ccc2nc([C@H](CC(C)(C)C(F)(F)F)NC(=O)c3ccnn3C(C)C)[nH]c2c1 (single isomer, unassigned) [Example 231, 1-Isopropyl-N—((S)-4,4,4-trifluoro-3,3-dimethyl-1-(6-((S*)-1-(4,4,4-trifluorobutanamido)ethyl)-1H-benzo[d]imidazol-2-yl)butyl)-1H-pyrazole-5-carboxamide] | > 0.1 | > 0.1 | – |
| CC(NC(=O)CCC(F)(F)F)c1ccc2nc([C@H](CC(C)(C)C(F)(F)F)NC(=O)c3ccnn3C(C)C)[nH]c2c1 (single isomer, unassigned) [Example 232, 1-Isopropyl-N—((S)-4,4,4-trifluoro-3,3-dimethyl-1-(6-((R*)-1-(4,4,4-trifluorobutanamido)ethyl)-1H-benzo[d]imidazol-2-yl)butyl)-1H-pyrazole-5-carboxamide] | – | > 0.1 | 0.05 to 0.1 |
| Cc1nonc1C(=O)N[C@H](c1nc2ccc([C@H](NC(=O)CC3CC(F)(F)C3)C3CC3)cc2[nH]1)[C@H]1C[C@@H](CC(F)(F)F)C1 (single isomer, unassigned) [Example 244] | > 0.1 | > 0.1 | – |
| Cc1nonc1C(=O)N[C@H](c1nc2ccc([C@H](NC(=O)CC3CC(F)(F)C3)C3CC3)cc2[nH]1)[C@H]1C[C@H](CC(F)(F)F)C1 (single isomer, unassigned) [Example 245] | > 0.1 | > 0.1 | – |
| Cc1nonc1C(=O)N[C@H](c1nc2ccc([C@H](NC(=O)CC3CC(F)(F)C3)C3CC3)cc2[nH]1)C1CCCCO1 (single isomer, unassigned) [Example 252, N—((R)-(6-((R)-Cyclopropyl(2-(3,3-difluorocyclobutyl)acetamido)methyl)-1H-benzo[d]imidazol-2-yl)((R*)-tetrahydro-2H-pyran-2-yl)methyl)-4-methyl-1,2,5-oxadiazole-3-carboxamide] | > 0.1 | > 0.1 | – |
| CC(C)n1nccc1C(=O)N[C@H](c1nc2ccc([C@H](NC(=O)CC3CC(F)(F)C3)C3CC3)cc2[nH]1)C1CCCCO1 (single isomer, unassigned) [Example 253, N—((R)-(6-((R)-Cyclopropyl(2-(3,3-difluorocyclobutyl)acetamido)methyl)-1H-benzo[d]imidazol-2-yl)((R*)-tetrahydro-2H-pyran-2-yl)methyl)-1-isopropyl-1H-pyrazole-5-carboxamide] | > 0.1 | > 0.1 | – |
| Cc1nonc1C(=O)N[C@H](c1nc2cc([C@H](NC(=O)CC(C)C(F)(F)F)C3CC3)ccc2[nH]1)[C@@H]1CCCC(F)(F)C1 (single isomer, unassigned) [Example 258, N—((S)-(5-((R)-Cyclopropyl((R*)-4,4,4-trifluoro-3-methylbutanamido)methyl)-1H-benzo[d]imidazol-2-yl)((R)-3,3-difluorocyclohexyl)methyl)-4-methyl-1,2,5-oxadiazole-3-carboxamide] | 0.05 to 0.1 | 0.05 to 0.1 | – |
| Cc1nonc1C(=O)N[C@H](c1nc2cc([C@H](NC(=O)CC(C)C(F)(F)F)C3CC3)ccc2[nH]1)[C@@H]1CCCC(F)(F)C1 (single isomer, unassigned) [Example 259, N—((S)-(5-((R)-Cyclopropyl((S*)-4,4,4-trifluoro-3-methylbutanamido)methyl)-1H-benzo[d]imidazol-2-yl)((R)-3,3-difluorocyclohexyl)methyl)-4-methyl-1,2,5-oxadiazole-3-carboxamide] | – | 0.05 to 0.1 | 0.05 to 0.1 |
| Cc1nonc1C(=O)N[C@H](c1nc2ccc([C@H](NC(=O)CC3CC(F)(F)C3)C3CC3)cc2[nH]1)C1CCC(F)(F)CO1 (single isomer, unassigned) [Example 260, N—((R)-(6-((R)-Cyclopropyl(2-(3,3-difluorocyclobutyl)acetamido)methyl)-1H-benzo[d]imidazol-2-yl)((S*)-5,5-difluorotetrahydro-2H-pyran-2-yl)methyl)-4-methyl-1,2,5-oxadiazole-3-carboxamide] | > 0.1 | > 0.1 | – |
| CC(C)n1nccc1C(=O)N[C@H](c1nc2ccc([C@H](NC(=O)CC3CC(F)(F)C3)C3CC3)cc2[nH]1)C1CCC(F)(F)CO1 (single isomer, unassigned) [Example 261, N—((R)-(6-((R)-Cyclopropyl(2-(3,3-difluorocyclobutyl)acetamido)methyl)-1H-benzo[d]imidazol-2-yl)((S*)-5,5-difluorotetrahydro-2H-pyran-2-yl)methyl)-1-isopropyl-1H-pyrazole-5-carboxamide] | 0.05 to 0.1 | > 0.1 | – |
| CC(C)n1nccc1C(=O)N[C@H](c1nc2ccc([C@H](NC(=O)CC3CC(F)(F)C3)C3CC3)cc2[nH]1)C1CCC(F)(F)CO1 (single isomer, unassigned) [Example 262, N—((R)-(6-((R)-Cyclopropyl(2-(3,3-difluorocyclobutyl)acetamido)methyl)-1H-benzo[d]imidazol-2-yl)((R*)-5,5-difluorotetrahydro-2H-pyran-2-yl)methyl)-1-isopropyl-1H-pyrazole-5-carboxamide] | – | > 0.1 | < 0.05 |
| Cc1c(C(=O)NC(CC(C)(C)C(F)(F)F)c2nc3cc([C@@H](C)NC(=O)CCC(F)(F)F)ccc3[nH]2)cnn1CC(F)(F)F (stereo in doubt) [Example 223, 5-Methyl-N—((S*)-4,4,4-trifluoro-3,3-dimethyl-1-(5-((R)-1-(4,4,4-trifluorobutanamido)ethyl)-1H-benzo[d]imidazol-2-yl)butyl)-1-(2,2,2-trifluoroethyl)-1H-pyrazole-4-carboxamide] | > 0.1 | > 0.1 | – |
| C[C@@H](NC(=O)CCC(F)(F)F)c1ccc2[nH]c([C@@H](NC(=O)c3cnn(CCC(F)(F)F)c3)C3CCC(F)(F)CC3)nc2c1 [Example 1, N—[(S)-(4,4-Difluorocyclohexyl)-[6-[(1R)-1-(4,4,4-trifluorobutanoylamino)ethyl]-1H-benzimidazol-2-yl]methyl]-1-(3,3,3-trifluoropropyl)pyrazole-4-carboxamide] | > 0.1 | > 0.1 | – |
| C[C@@H](NC(=O)CCC(F)(F)F)c1ccc2[nH]c([C@@H](NC(=O)c3ccn(CCC(F)(F)F)n3)C3CCC(F)(F)CC3)nc2c1 [Example 2, N—[(S)-(4,4-Difluorocyclohexyl)-[6-[(1R)-1-(4,4,4-trifluorobutanoylamino)ethyl]-1H-benzimidazol-2-yl]methyl]-1-(3,3,3-trifluoropropyl)pyrazole-3-carboxamide] | > 0.1 | > 0.1 | – |
| C[C@@H](NC(=O)CCC(F)(F)F)c1ccc2[nH]c([C@@H](NC(=O)c3cnn(CCC(F)(F)F)n3)C3CCC(F)(F)CC3)nc2c1 [Example 3, N—[(S)-(4,4-Difluorocyclohexyl)-[6-[(1R)-1-(4,4,4-trifluorobutanoylamino)ethyl]-1H-benzimidazol-2-yl]methyl]-2-(3,3,3-trifluoropropyl)triazole-4-carboxamide] | > 0.1 | > 0.1 | – |
| C[C@@H](NC(=O)CCC(F)(F)F)c1ccc2[nH]c([C@@H](NC(=O)c3cnnn3CCC(F)(F)F)C3CCC(F)(F)CC3)nc2c1 [Example 4, N—[(S)-(4,4-Difluorocyclohexyl)-[6-[(1R)-1-(4,4,4-trifluorobutanoylamino)ethyl]-1H-benzimidazol-2-yl]methyl]-3-(3,3,3-trifluoropropyl)triazole-4-carboxamide] | 0.05 to 0.1 | > 0.1 | – |
| Cc1c(C(=O)N[C@H](c2nc3cc([C@@H](C)NC(=O)CCC(F)(F)F)ccc3[nH]2)C2CCC(F)(F)CC2)cnn1CCC(F)(F)F [Example 5, N—[(S)-(4,4-Difluorocyclohexyl)-[6-[(1R)-1-(4,4,4-trifluorobutanoylamino)ethyl]-1H-benzimidazol-2-yl]methyl]-5-methyl-1-(3,3,3-trifluoropropyl)pyrazole-4-carboxamide] | > 0.1 | > 0.1 | – |
